# Results: patent US6528049B2, “Bisexual attractants, aggregants and arrestants for adults and larvae of codling moth and other species of lepidoptera” (Trece, Inc., priority 1999, dated 2003)
# How the values were obtained:
# codling moth = assay: Trap capture with purified (2E,4E) and (2E,4Z) 2,4-decadienoic acid esters; type: in vivo, Cydia pomonella; settings: 1 mg dose/gray septum; four orchards; means of 21 trap checks
# Experimental: In this study, test compounds were highly purified synthetic samples. The purities of the compounds are expressed as percentages. Individual traps were baited with 1 mg dose/gray septum; five replicate blocks in four orchards; means of 21 total trap checks.
# male codling moth = assay: Pheromone preference paired-trap test: pheromone alone vs pheromone + HPV; type: in vivo, Cydia pomonella; settings: for % Change (Ph+HPV/Phxl00) in Male CM Capture / Impact of HPV Blend on Pheromone Attractancy to Male CM / Male CM Capture with Pheromone + HPV Blend: ♂♂/trap/night ± SEM: Table 9; for Male CM Capture with Pheromone + HPV Blend: ♂♂/trap/night ± SEM / Male CM Captured, HPV + Pheromone Trap: ± SEM / Male CM Captured, HPV + Pheromone Trap ± SEM: 10 mg/red septum; for % of pheromone-alone capture (line under HPV + Pheromone value) / Male CM Captured, HPV + Pheromone Trap: ± SEM / Male CM Captured, HPV + Pheromone Trap ± SEM / Average % Change in ♂♂ CM Capture: Table 8; for Average % Change in ♂♂ CM Capture: average of four orchards
# Source text: Interaction of synthetic apple and pear odor blends, described above in Table 2, and their effect on the attractancy of synthetic pheromone to codling moth was also studied. For that purpose, series of paired-traps containing pheromone alone or pheromone in combination with synthetic host plant volatile blends were placed in walnut orchards.
# Interaction of individual synthetic host plant volatiles or blends on the attractiveness of synthetic male pheromone to male codling moth administered in paired traps with pheromone alone or with pheromone and attractant 10 mg/red septum was also studied.
# Pheromone traps (sticky wing traps, Trécé, Inc.,) were hung as pairs: a pheromone only baited-trap vs. a pheromone+HPV blend-baited trap. The two traps of a test pair were attached in close competitive proximity (120 cm apart) on a common hanger bar (PVC pipe). The paired-trap bars were hung 5-6 meters high on the outer canopies of trees. A single pair-trap was hung per tree and different replicate test trees were separated by five rows in a matrix through the orchard. Each pheromone trap was baited with ½ of a commercial pheromone-impregnated rubber septum (Trécé, Inc.). Septa were sectioned by a razor blade. The HPV blends evaporated from their own separate impregnated rubber septa containing 10 mg diluted in hexane/septum).
# Tests were conducted in a Harley English walnut orchard. Tests spanned the entire two year seasons April-October with traps checked, males sexed, counted and removed every 2-7 days. Significant effect on pheromone trap capture were judged by paired tests either T-test or a nonparametric test.
Compound,FEMALE CM Captured: ♂♂/trap/night ± SEM (codling moth),MALE CM Captured: ♂♂/trap/night ± SEM (codling moth),Total CM Captured: CM/trap/night ± SEM (codling moth) [CM/trap/night],% Change (Ph+HPV/Phxl00) in Male CM Capture (male codling moth) [%],Impact of HPV Blend on Pheromone Attractancy to Male CM (male codling moth),Male CM Capture with Pheromone + HPV Blend: ♂♂/trap/night ± SEM (male codling moth),also measured
"CCCCC/C=C\C=C\C(=O)OCCCCCC [Hexyl (2E,4Z)-2,4-Decadienoate (100%), Hexyl (2E,4Z)-2,4-Decadienoate]",0.02 ♀♀/trap/night,0.01 ± 0.01 ♂♂/trap/night,0.02 ± 0.02,–,–,–,–
"CCCCC/C=C/C=C/C(=O)OC(C)C [Isopropyl (2E,4E)-2,4-Decadienoate]",0.09 ± 0.04 ♀♀/trap/night,0.05 ± 0.02 ♂♂/trap/night,0.14 ± 0.05,–,–,–,–
"CCCCC/C=C/C=C/C(=O)OC [Methyl (2E,4E)-2,4-Decadienoate]",0.04 ± 0.03 ♀♀/trap/night,0.01 ± 0.01 ♂♂/trap/night,0.05 ± 0.03,–,–,–,–
C=CC(=C)CCC=C(C)C [Myrcene],–,–,–,84,No Effect,1.03 ± 0.26 ♂♂/trap/night,–
C=C/C(C)=C/C/C=C(\C)CCC=C(C)C [alpha-Farnesene],–,–,–,86,No Effect,1.38 ± 0.39 ♂♂/trap/night,–
CC1=CCC(C(C)C)=CC1 [gamma-Terpinene],–,–,–,93,No Effect,0.88 ± 0.28 ♂♂/trap/night,–
"CCCCC/C=C/C=C/C(=O)OCCC [n-Propyl (2E,4E)-2,4-Decadienoate]",0.19 ± 0.07 ♀♀/trap/night,0.17 ± 0.13 ♂♂/trap/night,0.36 ± 0.19,–,–,–,–
Cc1ccc(C(C)C)cc1 [para-Cymene],–,–,–,–,–,–,"% of pheromone-alone capture (line under HPV + Pheromone value) (male codling moth; Orchard #1): 117%; Male CM Captured, HPV + Pheromone Trap: ± SEM (male codling moth; Orchard #1): 0.92 ± 0.20 ♂♂/trap/night; % of pheromone-alone capture (line under HPV + Pheromone value) (male codling moth; Orchard #2): 102%; Male CM Captured, HPV + Pheromone Trap ± SEM (male codling moth; Orchard #2): 1.39 ± 0.38 ♂♂/trap/night; % of pheromone-alone capture (line under HPV + Pheromone value) (male codling moth; Orchard #3): 108%; Male CM Captured, HPV + Pheromone Trap: ± SEM (male codling moth; Orchard #3): 4.76 ± 0.82 ♂♂/trap/night; % of pheromone-alone capture (line under HPV + Pheromone value) (male codling moth; Orchard #4): 136%; Male CM Captured, HPV + Pheromone Trap: ± SEM (male codling moth; Orchard #4): 4.27 ± 0.71 ♂♂/trap/night; Average % Change in ♂♂ CM Capture (male codling moth): 116%"
C=C1CCC2CC1C2(C)C (stereo not drawn) [β-Pinene],–,–,–,–,–,–,"% of pheromone-alone capture (line under HPV + Pheromone value) (male codling moth; Orchard #1): 61%; Male CM Captured, HPV + Pheromone Trap: ± SEM (male codling moth; Orchard #1): 0.75 ± 0.50 ♂♂/trap/night; % of pheromone-alone capture (line under HPV + Pheromone value) (male codling moth; Orchard #2): 63%; Male CM Captured, HPV + Pheromone Trap ± SEM (male codling moth; Orchard #2): 1.25 ± 0.29 ♂♂/trap/night; % of pheromone-alone capture (line under HPV + Pheromone value) (male codling moth; Orchard #3): 130%; Male CM Captured, HPV + Pheromone Trap: ± SEM (male codling moth; Orchard #3): 3.37 ± 0.53 ♂♂/trap/night; % of pheromone-alone capture (line under HPV + Pheromone value) (male codling moth; Orchard #4): 112%; Male CM Captured, HPV + Pheromone Trap: ± SEM (male codling moth; Orchard #4): 4.95 ± 0.76 ♂♂/trap/night; Average % Change in ♂♂ CM Capture (male codling moth): 92%"
